Counter-ions that a name gives are not always drawn.
Tests used:
[1] = target: T1, uPA (sc-urokinase) (Homo sapiens, UniProt P00749); assay: In-vitro inhibition of urokinase, chromogenic substrate, Dixon Ki; assay type: biochemical; conditions: 25° C, pH 8.0; average of at least three determinations; read-out: K1 uPA
T1 construct: purchased Ribosepharm GmbH, Haan, Germany
Method: (§1) The uPA inhibitor activity was determined by incubating 200 μl of Tris buffer (0.05 mol/l, containing the inhibitor, 0.154 mol/l NaCl, 5% ethanol, pH 8.0), 25 μl of substrate (Pefachrome UK or BZ-β-Ala-Gly-Arg-pNA in H2O; Pentapharm Ltd, Basle, Switzerland) and 50 μl of sc-urokinase (Ribosepharm GmbH, Haan, Germany) or another corresponding protease at 25° C. After 3 min, the reaction was interrupted by adding 25 μl of acetic acid (50%) and absorbance at 405 nm was determined by means of a microplate reader (MR 5000, Dynatech, Denkendorf, Germany). The Ki values were determined by linear regression according to Dixon by means of a computer program. The Ki values are the average of at least three determinations, and the standard deviation was below 25%.

[2] = target: Plasmin (Homo sapiens, UniProt P00747); assay: In-vitro protease inhibition, chromogenic substrate, Dixon Ki; assay type: biochemical; conditions: 25° C, pH 8.0; read-out: K1 Plasmin
Method: as §1

[3] = target: Thrombin (UniProt P00735); assay: as above; assay type: biochemical; conditions: 25° C, pH 8.0; read-out: K1 Thrombin
Method: as §1

[4] = target: FXA (UniProt P00743); assay: as above; assay type: biochemical; conditions: 25° C, pH 8.0; read-out: K1 FXA
Method: as §1

[5] = target: T2, Trypsin (UniProt P00760); assay: as above; assay type: biochemical; conditions: 25° C, pH 8.0; read-out: K1 Trypsin
T2 sequence (P00760 1-246): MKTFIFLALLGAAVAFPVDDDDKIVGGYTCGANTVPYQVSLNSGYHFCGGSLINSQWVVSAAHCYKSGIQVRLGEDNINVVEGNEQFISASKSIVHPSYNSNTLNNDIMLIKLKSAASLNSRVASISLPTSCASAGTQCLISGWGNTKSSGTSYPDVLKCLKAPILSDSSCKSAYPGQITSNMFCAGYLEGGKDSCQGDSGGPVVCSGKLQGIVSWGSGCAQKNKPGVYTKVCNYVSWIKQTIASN
Method: as §1

[6] = system: DU145 tumors (a prostate adenocarcinoma cell line); conditions: SCID mice, oral, daily dose of 125 to 250 mg/kg/day; cited from earlier work
[7] = system: rat breast adenocarcinoma cells; conditions: after i.v. inoculation of rat breast adenocarcinoma cells; cited from earlier work
[8] = system: mouse breast cancer; conditions: cited from earlier work
[9] = system: rat prostate cancer; conditions: syngeneic model of rat prostate cancer; cited from earlier work

Sequence of Plasmin (P00747 581-810 limits assumed, species assumed): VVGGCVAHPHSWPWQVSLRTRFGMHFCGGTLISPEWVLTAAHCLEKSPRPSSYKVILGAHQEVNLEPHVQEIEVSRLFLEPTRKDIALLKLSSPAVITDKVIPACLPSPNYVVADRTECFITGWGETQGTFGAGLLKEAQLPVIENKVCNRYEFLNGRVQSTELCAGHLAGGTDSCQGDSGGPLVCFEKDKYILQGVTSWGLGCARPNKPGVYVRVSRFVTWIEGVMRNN
Sequence of Plasmin (P00747 97-580 partner limits assumed, species assumed): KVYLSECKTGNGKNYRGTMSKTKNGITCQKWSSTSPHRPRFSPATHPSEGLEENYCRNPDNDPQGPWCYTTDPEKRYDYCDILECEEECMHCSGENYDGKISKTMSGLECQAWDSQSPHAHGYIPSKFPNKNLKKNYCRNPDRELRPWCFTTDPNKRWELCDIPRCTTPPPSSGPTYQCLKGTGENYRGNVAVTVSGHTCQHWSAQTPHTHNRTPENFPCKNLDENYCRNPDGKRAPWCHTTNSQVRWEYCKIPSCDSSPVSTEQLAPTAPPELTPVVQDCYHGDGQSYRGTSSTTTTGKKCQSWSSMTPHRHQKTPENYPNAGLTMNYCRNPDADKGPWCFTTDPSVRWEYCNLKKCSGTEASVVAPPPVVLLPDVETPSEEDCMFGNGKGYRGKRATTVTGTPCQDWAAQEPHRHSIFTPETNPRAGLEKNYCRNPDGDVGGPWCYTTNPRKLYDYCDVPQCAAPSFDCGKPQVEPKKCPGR

In the case of N=C(N)Nc1ccc(CNC(=O)C(C(=O)O)c2ccccc2)cc1 (centres unmarked) [ST-406, N-(4-guanidinobenzyl) 2-(hydroxycarbonyl)-2-phenylacetamide Hydrochloride], the Ki [1] is reported as < 0.01 mM.

In the case of N=C(N)Nc1ccc(CNC(=O)C(C(=O)OCc2ccccc2)c2ccccc2)cc1 (centres unmarked) [ST-401, N-(4-guanidinobenzyl) 2-(benzyloxycarbonyl)-2-phenylacetamide hydrochloride], the Ki [1] is reported as 0.0014 mM, the Ki [2] is reported as > 1 mM and the Ki [3] is reported as > 1 mM. For the same compound, the Ki [4] was > 1 mM.

With N=C(N)Nc1ccc(CNC(=O)[C@@H](CO)c2ccccc2)cc1 (racemic) [ST-390, N-(4-guanidinobenzyl)-D,L-tropamide Hydrochloride] the Ki [1] was 0.051 mM, the Ki [2] was > 1 mM and the Ki [3] was > 1 mM. For the same compound, the Ki [4] was > 1 mM and the Ki [5] was > 1 mM.

In the case of N=C(N)c1ccc(N)cc1 [p-Aminobenzamidine], the “growth rate of DU145 tumors” value [6] is listed as “distinct decrease” and the side effects [6] is listed as “negligible”.

In the case of N=C(N)Nc1ccc(CNC(=O)C(C(=O)OCc2ccccc2)C23CC4CC(CC(C4)C2)C3)cc1 (centres unmarked) [ST-100], the Ki [1] is reported as < 0.001 mM.

In the case of N=C(N)NC(=O)c1nc(Cl)c(N)nc1N [Amiloride], the “formation of lung metastases” value [7] is listed as “prevents the formation of lung metastases”.

In the case of N=C(N)c1cc2c(I)cccc2s1 [B428, 4-iodobenzo[b]thiophene-2-carboxamidine], the primary tumor growth ([8]; B428 administered together with the antiestrogen tamoxifen) is given as “further decrease in primary tumor growth”, the “tumor growth and metastases formation” value ([8]; syngeneic model of mouse breast cancer) is given as “decrease of tumor growth and metastases formation” and the “tumor growth and metastases formation” value [9] is given as “decrease of tumor growth and metastases formation”.
